pIC50: −log10 of the molar value. Several values for one entry are separate records, joined by “and”; a condition that tells them apart may be missing. Identical values can stand only once.
Experiments:
[1] = test system: 3T3-L1 pre-adipocytes; experiment: 2-NBDG uptake in 3T3-L1 pre-adipocytes; assay type: cell-based
[2] = test system: beta-TC6 cells; experiment: Insulin HTRF assay on beta-TC6 supernatant (relative activity Ar); assay type: cell-based, mouse; settings: group I
Excerpt: For further screening of compounds derived from compounds described above for their ability to regulate insulin release an insulin HTRF® (Homogeneous Time-Resolved Fluorescence; Cisbio International, France) was used. This assay is based on two antibodies against insulin binding to different epitopes of insulin. One of these antibodies is coupled to Europium (Ab-Eu-Cryptate) and the other one to the fluorophore XL665 (Ab-XL665). If the insulin is secreted into the supernatant of cell culture, both antibodies can bind to insulin and come therefore into close proximity, which allows upon excitation that energy transfer between (FRET) the long-life fluorescent donor Europium (cryptate) and the acceptors XL665. FRET increases proportionally with insulin concentration.
On day 1, 15 k beta-TC6 cells per well were seeded for 24 or 48 h in 50 μL complete medium. On day 2 or respective on day 3, the medium is removed and cells are washed with 60 μL 1×PBS and 20 μL induction buffer is added using BioTek washer. Subsequently, 10 μL Sunitininb (5-μM f.c.) or the test compound in induction buffer; 0.5% f.c. DMSO (CyBi-well) is transferred to the cells. The cells are then incubated at 37° C. for 2, 3, 4 h. […]
First 10 μL supernatant is transferred from the cell plates in HTRF plates (CyBi-well). […] Finally HTRF is measured on ViewLux ultra high throughput microplate imager (PerkinElmer). […]

[3] = target: T1, GRK5 (Homo sapiens, UniProt P34947); experiment: Millipore KinaseProfiler radiometric filtration binding assay; assay type: biochemical; settings: group II; Millipore KinaseProfiler (Table 10)
T1 construct: purchased Millipore (KinaseProfiler service)
Procedure: (§1) As alternative, IC50 values are determined by a radiometric based filtration binding assay, namely Millipore KinaseProfiler™. GRK5 is incubated with 8 mM MOPS pH7.0, 0.2 mM EDTA, 2 mg/mL casein, 10 mM MgAcetate and […] (specific activity approx. 500 cpm/pmol, concentration as required). The reaction is initiated by the addition of the MgATP mix. After incubation for 40 minutes at room temperature, the reaction is stopped by the addition of 3% phosphoric acid solution. 10 μL of the reaction is then spotted onto a P30 filtermat and washed three times for 5 minutes in 75 mM phosphoric acid and once in methanol prior to drying and scintillation counting.
as §1, with “IC50” for “As alternative, IC50”, “pH 7.0,” for “pH7.0,”

[4] = test system: 3T3-L1 cells; experiment: Cell viability assay (CellTiter-Glo / automated cell number) in 3T3-L1; assay type: cell-based; settings: Mus musculus, read-out: Inhibition of cell viability IC50
Outline: (§2)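 ATP read by CellTiter-Glo luminescence after 10 min lysis at RT. Imaging variant: 10000 cells/well treated 72 h, then fixed and stained with Hoechst 33342 (20 μg/ml, 30 min, 37 °C). Nuclei counted automatically over six fields at 10×, compared with untreated controls, giving IC50.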

[5] = test system: C2C12 cells; experiment: Cell viability assay (CellTiter-Glo / automated cell number) in C2C12; assay type: cell-based; settings: Mus musculus, read-out: Inhibition of cell viability IC50
Outline: as §2

[6] = target: T2, full length GRK5 (Homo sapiens, UniProt P34947); experiment: GRK5 kinase activity assay, ADP Glo Kinase Assay technology (Promega); assay type: biochemical
T2 construct: 6/2 fold concentrated full length GRK5 (Millipore, #14-714) in reaction buffer; purchased Millipore 14-714
Outline: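 Casein (10 μM) phosphorylation with 100 μM ATP in 20 mM MES pH 6.0, 1 mM DTT, 10 mM MgCl2, 0.01% Tween20, 120 min at room temperature; ADP quantified by ADP-Glo luminescence.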

[7] = test system: C2C12 cells; experiment: 2-NBDG glucose uptake in C2C12 cells (flow cytometry); assay type: cell-based, mouse; settings: for 2-NBDG Glucose Uptake [%]: group II, at 5 μM, 1 h, 100 μM 2-NBDG
Procedure: (§3) 2-NBDG is a fluorescently-labeled deoxyglucose analog that is commonly used to directly monitor glucose uptake by living cells. For 2-NBDG detection, cells were cultured for 1 h together with 5 μM of a small molecule in glucose free media supplied with 100 μM 2-NBDG at 37° C. before collecting. Furthermore, as internal controls, samples of glucose free media, rFc4espectively glucose free media with test compound, were tested. Subsequently, cells were washed, trypsinized and harvested in ice-cold PBS before centrifuged at 1.6×10^3 rpm at 4° C. Cells were analyzed by flow cytometry (FACS Calibur, BD Bioscience, respectively a BD Accuri® C6 Flow Cytometer).
as §3, with “an inventive compound” for “a small molecule”, “media,” for “media, rFc4espectively”, “compound, respectively glucose free media supplied with 100 μM 2-NBDG” for “compound,”

[8] = test system: HepG2 cells; experiment: Cell viability assay (CellTiter-Glo / automated cell number) in HepG2; assay type: cell-based; settings: Homo sapiens, read-out: Inhibition of cell viability IC50
Outline: as §2

[9] = test system: beta TC6 cells; experiment: Cell viability assay (CellTiter-Glo / automated cell number) in beta TC6; assay type: cell-based; settings: Mus musculus, read-out: Inhibition of cell viability IC50
Outline: as §2

[10] = test system: beta-TC6 insulinoma cells; experiment: Insulin release by beta-TC6 cells, rat/mouse insulin ELISA, high glucose; assay type: cell-based
Procedure: (§4) Release of insulin was detected using a rat/mouse insulin ELISA.
After incubation, the supernatant of the beta-TC6 insulinoma cells was diluted 1:20. The insulin release was measured with rat/mouse insulin ELISA (Merck Millipore Darmstadt, Cat. # EZRMI-13K) by following the manufacture protocol. The enzyme activity of the horseradish peroxidase of the immobilized biotinylated antibodies was monitored spectrophotometrically by the increased absorbency at 490 nm, and corrected by the absorbency at 610 nm.
as §4
The effect on the insulin release of each kinase depletion was monitored by using a rat/mouse insulin ELISA.
For the validation of the negative modulating kinases SCYL1, GRK5, and ADCK1, the target genes were depleted using four different siRNA-sequences each (FIG. 2A-D). The gene-depletion was measured via mRNA-levels after 72 hours while the insulin release was measured using a rat/mouse insulin ELISA after two hours incubation.

[11] = test system: matured C2C12 myotubes; experiment: 2-NBDG uptake in matured C2C12 myotubes; assay type: cell-based, mouse; settings: relative to DMSO = 1; n = 2
Excerpt: (§5) Inhibition of GRK5 led to an increased uptake of the fluorescent glucose analogue 2-NBDG in matured C2C12 myotubes (FIG. 20) and 3T3-L1 adipocytes (FIG. 21) for all five compounds (summarized in table 7). In line with C2C12 cells, the matured myotubes display an increase 2-NBDG uptake after inhibition of GRK5 by compounds 1-5.

[12] = test system: 3T3-L1 adipocytes; experiment: 2-NBDG uptake in matured 3T3-L1 adipocytes; assay type: cell-based; settings: relative to DMSO = 1; n = 2
Excerpt: as §5

[13] = test system: beta TC6 cells; experiment: 2-NBDG uptake in beta TC6 cells; assay type: cell-based, mouse; settings: n = 3, FIG. 18

T2 sequence (P34947 whole entry): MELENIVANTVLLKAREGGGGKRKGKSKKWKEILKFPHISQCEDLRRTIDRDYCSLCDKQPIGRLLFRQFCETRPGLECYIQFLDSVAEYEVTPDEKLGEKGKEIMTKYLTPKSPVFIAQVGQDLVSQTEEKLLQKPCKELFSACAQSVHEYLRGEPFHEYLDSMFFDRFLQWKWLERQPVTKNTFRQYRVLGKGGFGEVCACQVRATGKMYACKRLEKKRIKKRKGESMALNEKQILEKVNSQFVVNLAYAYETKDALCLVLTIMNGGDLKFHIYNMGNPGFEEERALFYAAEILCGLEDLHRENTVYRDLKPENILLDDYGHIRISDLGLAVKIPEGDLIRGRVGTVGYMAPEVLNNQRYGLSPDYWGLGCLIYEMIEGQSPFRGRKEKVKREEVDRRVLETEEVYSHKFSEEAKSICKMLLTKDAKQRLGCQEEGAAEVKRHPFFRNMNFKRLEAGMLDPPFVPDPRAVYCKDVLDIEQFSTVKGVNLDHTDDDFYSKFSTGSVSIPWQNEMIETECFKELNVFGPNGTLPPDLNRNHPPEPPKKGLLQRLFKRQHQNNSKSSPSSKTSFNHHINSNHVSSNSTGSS
T1 sequence (P34947 whole entry): as above

Nc1cccc(-c2cc3cnc(Nc4cccnc4)cc3[nH]2)c1 [compound 2, 2-(3-aminophenyl)-N-(3-pyridyl)-1H-pyrrolo[3,2-c]pyridin-6-amine]
Glucose uptake (2-NBDG) in 3T3-L1 pre-adipocytes ([1]; GRK5 screen compounds): stimulated

CS(=O)(=O)c1ccc(Nc2nccc3[nH]c(-c4ccccc4)cc23)cc1 [compound 324, N-(4-methylsulfonylphenyl)-2-phenyl-1H-pyrrolo[3,2-c]pyridin-4-annine]
Ar (relative activity) [2]: +++ (50% ≦ Ar < 100%)

C[C@@H](NC(=O)c1ccc2c(c1)/C(=C/Nc1ccc(CN3CCCCC3)cc1)C(=O)N2)c1ccc(Cl)cc1 [II.73, (3Z)-N-[(1R)-1-(4-chlorophenyl)ethyl]-2-oxo-3-({[4-(piperidin-1-ylmethyl)phenyl]amino}methylene)indoline-5-carboxamide]
pIC50 [3]: 6.00 to 7.00
pIC50 [4]: 5.56
pIC50 [5]: 5.63
pIC50 ([6]; group II, ADP Glo Kinase Assay (Table 9-B)): 6.00 to 7.00
2-NBDG Glucose Uptake [%] [7]: 127%
pIC50 [8]: 6.05
pIC50 [9]: 6.14

C[C@@H](NC(=O)c1ccc2c(c1)/C(=C/c1ccc(C(=O)N3CCN(C)CC3)cc1)C(=O)N2)c1ccccc1 [II.143, (3Z)-3-[4-(4-methyl-piperazine-1-carbonyl)-benzylidene]-2-oxo-2,3-dihydro-1H-indole-5-carboxylic acid (1R)-(1-phenyl-ethyl)-amide]
2-NBDG Glucose Uptake [%] [7]: 72%

Nc1cccc(-c2cc3cnc(Nc4cccnc4)cc3[nH]2)c1 [C2]
Insulin release (average, relative to DMSO = 1) ([10]; beta-TC6, 5 μM): 2.58±0.94 and 2.58
Insulin release (average, relative to DMSO = 1) ([10]; beta-TC6, 10 μM): 2.01±0.19 and 2.01
2-NBDG glucose uptake, Ratio (average, DMSO = 1) ([1]; 3T3-L1 pre-adipocytes, n = 3, FIG. 19): 1.111
2-NBDG uptake Ratio, C2C12 myotubes matured [11]: 2.383
Inhibition of Grk5 [%] ([6]; primary screen, final assay concentration 100 μM): 60.0%
2-NBDG glucose uptake, Ratio (average, DMSO = 1) ([7]; C2C12 cells, n = 3, FIG. 17): 2.127
2-NBDG uptake Ratio, 3T3-L1 adipocytes matured [12]: 2.234
2-NBDG glucose uptake, Ratio (average, DMSO = 1) [13]: 1.529

COc1cc(Nc2nccc3c2cc(-c2ccc(C(=O)N(C)C)cc2)n3C)cc(C(F)(F)F)c1 [compound 220, N,N-dimethyl-4-[1-methyl-4-(3-methoxy-5-(trifuloromethyl)phenylamino)pyrrolo[3,2-c]pyridin-2-yl]benzamide]
Ar (relative activity) [2]: + (0% < Ar < 30%)

Reference: US9458463B2, “Method for treatment of diabetes by a small molecule inhibitor for GRK5” (MAX-PLANCK-GESELLSCHAFT ZUR FÖRDERUNG DER WISSENSCHAFTEN …, priority 2010, dated 2016)
